This note sets out measurements from patent US9394284B2, “Compounds act at multiple prostaglandin receptors giving a general anti-inflammatory response” (Allergan, Inc., priority 2010, dated 2016).

Common to all, as to assay type: cell-based
For assay [1], the target named is T1, human prostanoid EP1 receptor (Homo sapiens, UniProt P34995).
T1 construct: expressed in transfected cells
T1 sequence (P34995 1-402): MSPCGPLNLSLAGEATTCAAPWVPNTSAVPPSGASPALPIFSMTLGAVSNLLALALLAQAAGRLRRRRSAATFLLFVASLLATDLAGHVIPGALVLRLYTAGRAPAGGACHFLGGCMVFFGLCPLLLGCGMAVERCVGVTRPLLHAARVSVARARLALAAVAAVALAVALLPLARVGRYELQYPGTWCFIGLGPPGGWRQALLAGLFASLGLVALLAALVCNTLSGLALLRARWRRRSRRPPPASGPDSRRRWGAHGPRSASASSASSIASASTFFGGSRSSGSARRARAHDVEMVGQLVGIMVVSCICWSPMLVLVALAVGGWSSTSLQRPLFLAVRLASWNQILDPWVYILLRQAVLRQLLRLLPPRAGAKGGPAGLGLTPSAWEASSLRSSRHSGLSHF
The assay can be described thus: FLIPR Ca2+ signaling antagonist assay, EP1 receptor stable cell line. To be noted: HEK-293 EBNA stable cell line; standard agonist PGE2; NA = inactive (no antagonism or Kb 10,000 nM); PAg, Ag not defined. The essentials: (§1)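 HEK-293 EBNA cells stably expressed the receptor: DP1 with chimeric Gqs, EP3 with Gqi, and EP1 and TP without exogenous G protein. Fluo-4AM-loaded cells were preincubated 4.5 min at 37 °C with antagonist (0.1–30 μM; TP 0.067–1 μM) before agonist serial dilutions. Peak FLIPR fluorescence was normalised to the 10^−6 M agonist control.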

For assay [2], the target named is T2, human prostanoid IP receptor (Homo sapiens, UniProt P43119).
T2 construct: expressed in transfected cells
Description: FLIPR Ca2+ signaling antagonist assay, IP receptor stable cell line. As to conditions: HEK-293 EBNA stable cell line; standard agonist Cicaprost; NA = inactive (no antagonism or Kb 10,000 nM); PAg, Ag not defined. The essentials: (§2)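 Peak Fluo-4 fluorescence (ex 470–495, em 515–575 nm) was read for 3.5 min on FLIPR after agonist injection and expressed relative to 10^−6 M standard agonist. Cells were HEK-293 EBNA transfectants. Test compound was added 4.5 min beforehand at 0.1–30 μM, or 0.067–1 μM for TP.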

In assay [3] the target is T3, human prostanoid EP4 receptor (Homo sapiens, UniProt P35408).
T3 construct: expressed in transfected cells
The assay can be described thus: FLIPR Ca2+ signaling antagonist assay, EP4 receptor stable cell line. To be noted: HEK-293 EBNA stable cell line; standard agonist PGE2; NA = inactive (no antagonism or Kb 10,000 nM); PAg, Ag not defined. The essentials:
as §2

Assay [4] has as its target T4, human prostanoid TP receptor (Homo sapiens, UniProt P21731).
T4 construct: expressed in transfected cells
T4 sequence (P21731 1-343): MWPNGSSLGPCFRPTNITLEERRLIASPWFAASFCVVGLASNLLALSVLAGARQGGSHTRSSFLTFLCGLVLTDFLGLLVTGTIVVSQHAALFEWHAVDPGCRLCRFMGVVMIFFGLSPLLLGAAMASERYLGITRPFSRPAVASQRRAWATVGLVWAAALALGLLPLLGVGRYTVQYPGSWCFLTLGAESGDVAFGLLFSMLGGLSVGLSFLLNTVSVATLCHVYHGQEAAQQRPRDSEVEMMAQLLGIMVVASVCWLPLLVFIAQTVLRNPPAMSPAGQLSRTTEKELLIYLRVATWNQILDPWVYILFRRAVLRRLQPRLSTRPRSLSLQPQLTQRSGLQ
Description: FLIPR Ca2+ signaling antagonist assay, TP receptor stable cell line. To be noted: HEK-293 EBNA stable cell line; standard agonist U-46619; NA = inactive (no antagonism or Kb 10,000 nM); PAg, Ag not defined. The essentials:
as §1

SMILES strings stand for the structures.

T3 sequence (P35408 whole entry): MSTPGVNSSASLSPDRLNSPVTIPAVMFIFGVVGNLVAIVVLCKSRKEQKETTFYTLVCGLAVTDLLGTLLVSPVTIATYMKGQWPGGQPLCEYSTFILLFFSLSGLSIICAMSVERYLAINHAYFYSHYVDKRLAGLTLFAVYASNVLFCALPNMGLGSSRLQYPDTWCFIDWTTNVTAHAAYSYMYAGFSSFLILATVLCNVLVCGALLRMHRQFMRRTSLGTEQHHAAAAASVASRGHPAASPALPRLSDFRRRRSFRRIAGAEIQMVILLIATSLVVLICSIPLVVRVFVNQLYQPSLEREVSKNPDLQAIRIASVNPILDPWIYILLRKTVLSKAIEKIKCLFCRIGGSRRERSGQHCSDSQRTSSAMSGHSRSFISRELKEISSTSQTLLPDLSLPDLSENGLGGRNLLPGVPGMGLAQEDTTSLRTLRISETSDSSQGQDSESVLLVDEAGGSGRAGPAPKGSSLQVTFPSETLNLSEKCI
T2 sequence (P43119 whole entry): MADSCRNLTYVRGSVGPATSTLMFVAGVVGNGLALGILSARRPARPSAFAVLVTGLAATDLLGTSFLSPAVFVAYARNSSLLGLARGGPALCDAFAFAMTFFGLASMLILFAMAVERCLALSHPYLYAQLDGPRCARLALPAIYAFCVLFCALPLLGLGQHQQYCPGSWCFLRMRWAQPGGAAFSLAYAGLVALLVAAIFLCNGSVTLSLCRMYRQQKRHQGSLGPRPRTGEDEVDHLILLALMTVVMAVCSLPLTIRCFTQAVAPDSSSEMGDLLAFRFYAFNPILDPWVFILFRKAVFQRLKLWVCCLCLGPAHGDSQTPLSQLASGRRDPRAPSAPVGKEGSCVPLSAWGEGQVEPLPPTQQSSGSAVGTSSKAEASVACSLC

A word on the Kb: it is the equilibrium dissociation constant of an antagonist, usually derived from a functional assay. A low value points to higher antagonist affinity. `Cc1cc(CC(C)(C)C(=O)O)nn1Cc1cc(Br)ccc1OCC1CCCC1` [Example 71, 3-{1-[5-Bromo-2-(2-cyclopentylmethoxy)-benzyl]-5-methyl-1H-pyrazol-3-yl}-2,2-dimethyl-propionic acid]: the Kb in assay [1] stood at 50 nM; in assay [2], 3100 nM; in assay [3], 80 nM; in assay [4], 8 nM.

On to `Cc1cc(CCC(=O)O)nn1Cc1cc(Cl)ccc1C#CC1CCCC1` [Example 73, 3-{1-[5-Chloro-2-cyclopentylethynyl-benzyl]-5-methyl-1H-pyrazol-3-yl}-propionic acid], for which the Kb turned out to be 6 nM in assay [1], 1600 nM in assay [2], 600 nM in assay [3] and 2 nM in assay [4].

For `Cc1cc(CCC(=O)NS(=O)(=O)C(F)(F)F)nn1Cc1cc(Cl)ccc1CCC1CCCC1` [Example 75], the Kb in assay [1] worked out at 60 nM; in assay [2], 1900 nM; in assay [3] it was 1000 nM; in assay [4], 12 nM.
